Data reported in US9486506B2 (Novo Nordisk A/S, priority 2011, dated 2016).
Numbered stars: 1 amine (or outer) side, 2 acyl side, 3 side chain; on linkers, the order of the positions; unused ones are H or OH. Side chains are listed from the residue outwards. Peptide text beside a SMILES is read from it. * marks the point of attachment. C18 diacid = O=C(O)CCCCCCCCCCCCCCCCC(=O)*; γGlu = O=C(O)[C@H](CCC(=O)[*:2])N[*:1]; AEEA = NCCOCCOCC(=O)O

Target: T1, glucagon receptor (Homo sapiens, UniProt P47871)
T1 construct: expressed in transfected cells
T1 sequence (P47871 26-477): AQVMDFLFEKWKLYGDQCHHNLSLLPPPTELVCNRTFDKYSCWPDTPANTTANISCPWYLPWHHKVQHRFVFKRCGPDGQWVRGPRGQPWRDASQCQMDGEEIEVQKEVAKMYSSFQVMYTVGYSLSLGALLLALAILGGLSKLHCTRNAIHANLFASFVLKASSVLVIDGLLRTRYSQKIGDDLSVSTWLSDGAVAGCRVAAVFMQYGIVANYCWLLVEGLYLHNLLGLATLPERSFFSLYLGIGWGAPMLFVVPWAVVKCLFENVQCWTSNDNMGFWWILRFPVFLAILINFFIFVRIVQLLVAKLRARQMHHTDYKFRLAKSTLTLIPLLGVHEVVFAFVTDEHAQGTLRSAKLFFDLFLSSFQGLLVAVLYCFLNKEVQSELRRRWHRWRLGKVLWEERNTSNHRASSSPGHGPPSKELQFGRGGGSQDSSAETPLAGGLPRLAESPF
Experiment: Assay (I) Glucagon activity (cAMP biosensor, FLIPR)
Assay type: cell-based
Description: The cells (14000 per well) were incubated (37° C., 5% CO2) overnight in 384-well plates. Next day the cells were loaded with a calcium responsive dye that only distributed into the cytoplasm. Probenecid, an inhibitor of the organic anion transporter, was added to prevent the dye from leaving the cell. A PDE inhibitor was added to prevent formatted cAMP from being degraded. The plates were placed into a […] and the glucagon analogues were added. End point data were collected after 6 minutes. An increase in intracellular cAMP was proportional to an increased in calcium concentrations in the cytoplasm. When calcium was bound the dry a fluorescence signal was generated. EC50-values were calculated in Prism5.

SMILES	EC50 [nM]
CC(C)C[C@H](NC(=O)[C@H](Cc1c[nH]c2ccccc12)NC(=O)[C@H](CCCCNC(=O)CC[C@H](NC(=O)COCCOCCNC(=O)COCCOCCNC(=O)CC[C@H](NC(=O)CCCCCCCCCCCCCCCCC(=O)O)C(=O)O)C(=O)O)NC(=O)[C@@H](NC(=O)[C@H](Cc1ccccc1)NC(=O)[C@H](CCC(=O)O)NC(=O)[C@H](CCC(N)=O)NC(=O)[C@H](C)NC(=O)[C@H](CCCNC(=N)N)NC(=O)[C@H](CCCNC(=N)N)NC(=O)[C@@H](NC(=O)[C@H](CC(=O)O)NC(=O)[C@H](CC(C)C)NC(=O)[C@H](Cc1ccc(O)cc1)NC(=O)[C@H](CCCCN)NC(=O)[C@H](CO)NC(=O)[C@H](Cc1ccc(O)cc1)NC(=O)[C@H](CC(=O)O)NC(=O)[C@H](CO)NC(=O)[C@@H](NC(=O)[C@H](Cc1ccccc1)NC(=O)[C@@H](NC(=O)CNC(=O)[C@H](CCC(N)=O)NC(=O)[C@H](CO)NC(=O)[C@@H](N)Cc1c[nH]cn1)[C@@H](C)O)[C@@H](C)O)[C@@H](C)O)C(C)C)C(=O)N[C@@H](CC(C)C)C(=O)N[C@@H](CC(N)=O)C(=O)N[C@H](C(=O)O)C(C)C [Example 36, N^ε24-[(4S)-4-carboxy-4-[[2-[2-[2-[[2-[2-[2-[[(4S)-4-carboxy-4-(17-carboxyheptadecanoylamino)butanoyl]amino]ethoxy]ethoxy]acetyl]amino]ethoxy]ethoxy]acetyl]amino]butanoyl]-[Thr16,Glu21,Lys24,Leu27,Val29]-Glucagon] (H-HSQGTFTSDYSKYLDTRRAQEFVK([γGlu-AEEA-AEEA-γGlu-C18 diacid])WLLNV-OH)	0.12
CC(C)C[C@H](NC(=O)[C@H](CC(=O)O)NC(=O)[C@H](CC(C)C)NC(=O)[C@H](Cc1ccc(O)cc1)NC(=O)[C@H](CCCNC(=N)N)NC(=O)[C@H](CO)NC(=O)[C@H](Cc1ccc(O)cc1)NC(=O)[C@H](CC(=O)O)NC(=O)[C@H](CO)NC(=O)[C@@H](NC(=O)[C@H](Cc1ccccc1)NC(=O)[C@@H](NC(=O)CNC(=O)[C@H](CCC(N)=O)NC(=O)[C@H](CO)NC(=O)[C@@H](N)Cc1c[nH]cn1)[C@@H](C)O)[C@@H](C)O)C(=O)N[C@@H](CCCNC(=N)N)C(=O)N[C@@H](CCCNC(=N)N)C(=O)N[C@@H](C)C(=O)N[C@@H](CCC(N)=O)C(=O)N[C@@H](CC(=O)O)C(=O)N[C@@H](Cc1ccccc1)C(=O)N[C@H](C(=O)N[C@@H](CCCCNC(=O)CC[C@H](NC(=O)COCCOCCNC(=O)COCCOCCNC(=O)CC[C@H](NC(=O)CC[C@H](NC(=O)CCCCCCCCCCCCCCCCC(=O)O)C(=O)O)C(=O)O)C(=O)O)C(=O)N[C@@H](Cc1c[nH]c2ccccc12)C(=O)N[C@@H](CC(C)C)C(=O)N[C@@H](CC(C)C)C(=O)N[C@@H](CO)C(=O)N[C@H](C(=O)O)[C@@H](C)O)C(C)C [Example 27, N^ε24-[(4S)-4-carboxy-4-[[2-[2-[2-[[2-[2-[2-[[(4S)-4-carboxy-4-[[(4S)-4-carboxy-4-(17-carboxyheptadecanoylamino)butanoyl]amino]butanoyl]amino]ethoxy]ethoxy]acetyl]amino]ethoxy]ethoxy]acetyl]amino]butanoyl]-[Arg^12,Leu^16,Lys^24,Leu^27,Ser^28]-Glucagon] (H-HSQGTFTSDYSRYLDLRRAQDFVK([γGlu-AEEA-AEEA-γGlu-γGlu-C18 diacid])WLLST-OH)	0.91
